Values quoted from earlier work, collected in patent publication US7015199B1, “Treatment of psoriasis through down-regulation of the EGF-receptor with topically-applied EGF” (priority 2000, dated 2006).

Tested on: EGF-dependent cancer cell lines
Settings: high levels of EGF, in-vitro

epidermal growth factor (NSDSECPLSHDGYCLHDGVCMYIEALDKYACNCVVGYIGERCQYRDLKWWELR; Epidermal growth factor; UniProt P01133 971-1023, looked up) [EGF, epidermal growth factor, ligand of the EGF receptor]
growth of EGF-dependent cancer cell lines: inhibited the growth
